Experimental data taken from US20160074373A1, “METHODS AND COMPOSITIONS FOR INHIBITING HUMAN COPPER TRAFFICKING PROTEINS ATOX1 AND CCS” (SHANGHAI INSTITUTE OF MATERIA MEDICA, CHINESE ACADEMY OF …, priority 2013, published 2016).
pKd: −log10 of the molar value. “And” between values parts separate entries of the source, which are not always exact repeats. Equal entries are not always repeated.

What was measured:
[1] = test system: Atox1-WD4 interaction (eCALWY3 probe); test: eCALWY3 FRET assay of Atox1-WD4 interaction; format: biochemical, human; conditions: for Fluorescence Intensity Ratio (Citrine/Cerulean): 100 μM compound added; for Recover %: 100 μM compound, recovery of FRET ratio towards eCALWY3 only
Method: FRET for the eCALWY3 was performed in 150 mM HEPES, 100 mM NaCl, 1 mM DTT and 10% glycerol (pH 7.1). Zn^2+ titration was done by mixing 0.9 mM of Zn^2+ from a slightly acidic stock solution of ZnCl2 with buffering systems consisting of 1 mM DHPTA. The effects of varying concentrations of the small molecules were evaluated. Fluorescence spectra and emission anisotropy were recorded on a Varian Cary Eclipse spectrometer.

[2] = test system: human PIG1 cell and human dermal fibroblast cell; conditions: for viability of normal cells: 72 hours, highest concentration tested 10 μM
[3] = test system: Lung cancer H1299 cell, Head and neck cancer 212LN cell, Breast cancer MB231 cell; test: Cancer cell viability / proliferation; conditions: for cell death in cancer cells: H1299, 212LN, MB231, increasing doses
human CCS (hCCS) = biological target: T1, human CCS (hCCS) (Homo sapiens, UniProt O14618); test: Intrinsic fluorescence Kd measurement; format: binding; conditions: intrinsic tryptophan fluorescence
T1 construct: 6-His (cleaved yes); made in house; host or cells: E. coli BL21 (pET28a)
T1 sequence (O14618 1-274): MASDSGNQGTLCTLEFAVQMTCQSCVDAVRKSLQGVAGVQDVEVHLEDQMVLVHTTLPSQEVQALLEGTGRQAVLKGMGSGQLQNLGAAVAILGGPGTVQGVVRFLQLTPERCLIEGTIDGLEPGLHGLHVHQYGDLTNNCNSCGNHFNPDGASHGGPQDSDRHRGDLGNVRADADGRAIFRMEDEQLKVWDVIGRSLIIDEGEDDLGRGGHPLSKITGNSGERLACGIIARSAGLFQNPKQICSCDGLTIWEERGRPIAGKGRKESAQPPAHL
Method: Based on this similarity, the intrinsic fluorescence of tyrosine for Atox1 and WD4 and tryptophan for hCCS upon addition of small molecules was monitored.
The binding assay was performed in an […]. […] The Atox, WD4 domain and hCCS (1 μM) were performed in 50 mM HEPES, 200 mM NaCl, 1 mM DTT (pH 7.1). […] Following this fluorescence results, the Kds of the small molecules was calculated.

[4] = Method: An in vivo small molecule treatment experiment was performed to further test the efficacy of these compounds.
H1299 cells [5] = test: 14C-lipid synthesis from 14C-glucose; format: cell-based
[6] = test system: AMPK phosphorylation and ACC1 phosphorylation; test: Western blot of AMPK and ACC1 phosphorylation; format: cell-based; conditions: for rescue of AMPK and ACC1 phosphorylation increased by compound 50: co-treatment with compound 50
H1299 cells [7] = test: ROS production (DCFH-DA); format: cell-based
Method: (§1) Cells were treated with DMSO and DC_AC50 for 12 h and ROS generation was detected with DCFH-DA. Cells were incubated with 10 μM of DCFH-DA for 30 min at 37° C., washed twice with PBS, and immediately analyzed by a FACScan flow cytometer. The antioxidant NAC was treated with 3 mM concentration.

K562 cells [8] = test: ROS production (DCFH-DA); format: cell-based
Method: as §1

H1299 cancer cells [9] = test: 8-OHdG levels by triple quadrupole mass spectrometry; format: cell-based
From the text: FIG. 20A illustrates 8-OHdG levels in H1299 cancer cells determined by triple quadrupole mass spectrometry analysis. […] .

K562 cancer cells [10] = test: as above; format: cell-based
From the text: FIG. 20B illustrates 8-OHdG levels in K562 cancer cells determined by triple quadrupole mass spectrometry analysis. […] .

K562 cells [11] = test: K562 xenograft; conditions: 100 mg/kg/day i.p. for 21 days vs vehicle control
H1299 cells [12] = test: H1299 xenograft; conditions: 100 mg/kg/day i.p. for 21 days vs vehicle control
H1299 cells [13] = test: Lactate production
[14] = test system: SOD activity in H1299 cells; test: SOD activity assay; conditions: 48 h treatment
[15] = test system: SOD activity in K562 cells; test: SOD activity assay; conditions: 48 h treatment
H1299 cells [16] = test: Oxygen consumption rate; conditions: in the presence or absence of oligomycin
H1299 cancer cells [17] = test: Cell cycle arrest assay
K562 cancer cells [18] = test: Cell cycle arrest assay
H1299 cells [19] = test: Glucose utilization assay
H1299 cells [20] = test: Intracellular ATP measurement
K562 cells [21] = test: Intracellular ATP measurement
H1299 cells [22] = test: Apoptosis and caspase-3 activity
H1299 cells [23] = test: 14C-RNA synthesis from 14C-glucose
[24] = test system: cytochrome c oxidase (CCO) in H1299 cells; test: Cytochrome c oxidase activity assay; conditions: compared to the control
[25] = test system: cytochrome c oxidase (CCO) in K562 cells; test: Cytochrome c oxidase activity assay; conditions: compared to the control
SOD1 and SOD2 = test: Western blot of SOD1 and SOD2 levels; conditions: H1299 and K562 cells
HeLa cells = test: Live cell copper(I) probe imaging of copper uptake; conditions: 50 μM, added 10 min after CuSO4 (150 μM)
cell proliferation = test: Rescue of cell proliferation inhibition induced by compound 50; format: cell-based; conditions: co-treatment with compound 50
tumor growth = conditions: TM-induced copper deficiency; cited from earlier work

With `CCN1CCc2nc3sc(C(=O)Nc4ccccc4OC(F)(F)F)c(N)c3cc2C1` [Compound 2, 3-amino-6-ethyl-N-(2-(trifluoromethoxy)phenyl)-5,6,7,8-tetrahydro-thieno[2,3-b][1,6]naphthyridine-2-carboxamide] the “Fluorescence Intensity Ratio (Citrine/Cerulean)” value [1] was “eCALWY3 only: 3.54 100 μM compound added: 3.05”, the Recover % [1] was 86% and the “viability of normal cells” value [2] was “not harmful”. The “cell death in cancer cells” value [3] was “induce cell death”.
For `Nc1c(C(=O)NCC(c2ccccc2)c2ccccc2)sc2nc(-c3ccncc3)cc(C(F)(F)F)c12` [Compound 30], the “Fluorescence Intensity Ratio (Citrine/Cerulean)” value [1] was “eCALWY3 only: 2.27 100 μM compound added: 1.53”, the Recover % [1] was 67% and the “viability of normal cells” value [2] was “not harmful”. For the same compound, the “cell death in cancer cells” value [3] was “induce cell death”.
In the case of `COc1cccc(-c2ccc3c(N)c(C(=O)Nc4cc(OC)ccc4Cl)sc3n2)c1` [Compound 49, 3-amino-N-(2-chloro-5-methoxyphenyl)-6-(3-methoxyphenyl)thieno[2,3-b]pyridine-2-carboxamide], the “Fluorescence Intensity Ratio (Citrine/Cerulean)” value [1] was “eCALWY3 only: 2.24 100 μM compound added: 1.89”, the Recover % [1] was 84% and the “viability of normal cells” value [2] was “not harmful”. The “cell death in cancer cells” value [3] was “induce cell death”.
In the case of `Nc1c(C(=O)Nc2c(F)cc(F)cc2Br)sc2nc3c(cc12)CCC3` [Compound 50, 3-amino-N-(2-bromo-4,6-difluorophenyl)-6,7-dihydro-5H-cyclopenta[b]thieno[3,2-e]pyridine-2-carboxamide], the pKd (human CCS (hCCS)) was 5.10 and ~5.09, the GRAN ([4]; mouse, in vivo, 100 mg/kg/day) was 1.58 ± 1.4 ×10^3/μL and the HCT ([4]; mouse, in vivo, 100 mg/kg/day) was 30.85 ± 4.879%. For the same compound, the HGB ([4]; mouse, in vivo, 100 mg/kg/day) was 7.45 ± 1.768 g/dL, the LYM ([4]; mouse, in vivo, 100 mg/kg/day) was 4.74 ± 1.556 ×10^3/μL and the MCH ([4]; mouse, in vivo, 100 mg/kg/day) was 13.6 ± 1.273 pg. For the same compound, the MCHC ([4]; mouse, in vivo, 100 mg/kg/day) was 24 ± 1.98 g/dL, the MCV ([4]; mouse, in vivo, 100 mg/kg/day) was 56.75 ± 0.919 fL and the MONO ([4]; mouse, in vivo, 100 mg/kg/day) was 0.44 ± 0.17 ×10^3/μL. The PLT ([4]; mouse, in vivo, 100 mg/kg/day) was 742 ± 684.5 ×10^3/μL, the RBC ([4]; mouse, in vivo, 100 mg/kg/day) was 5.43 ± 0.778 ×10^6/μL and the RDWa ([4]; mouse, in vivo, 100 mg/kg/day) was 21.5 ± 4.667%. The WBC ([4]; mouse, in vivo, 100 mg/kg/day) was 6.89 ± 3.125 ×10^3/μL, the MPV ([4]; nude mice, 100 mg/kg/day, mean) was 6.35 ± 0.495 fL and the well-tolerated dose ([4]; nude, mouse, in vivo, ip, 4 weeks) was 100 mg/kg/day. The lipid synthesis (H1299 cells [5]) was “significant decreases”, the ACC1 phosphorylation ([6]; H1299 and K562 cells) was “increased” and the AMPK phosphorylation ([6]; H1299 and K562 cells) was “increased”. For the same compound, the “cellular ROS level” value (H1299 cells [7]; 10 μM) was “increased cellular ROS level”, the “cellular ROS level” value (K562 cells [8]; 10 μM) was “increased cellular ROS level” and the 8-OHdG levels (H1299 cancer cells [9]) was “increased”. For the same compound, the 8-OHdG levels (K562 cancer cells [10]) was “increased”, the “effect on noncancerous cell lines” value [2] was “minimum effects” and the “viability of normal cells” value [2] was “not harmful”. The “tumor growth and size” value (K562 cells [11]) was “significantly decreased tumor growth and size”, the “tumor growth and size” value (H1299 cells [12]) was “significantly decreased tumor growth and size” and the “cellular level of lactate” value (H1299 cells [13]) was “no noticeable changes”. The SOD activity [14] was “noticeably decreased”, the SOD activity [15] was “noticeably decreased” and the oxygen consumption rate (H1299 cells [16]) was “significantly decreased”. For the same compound, the cell cycle (H1299 cancer cells [17]) was “G2/M phase cell cycle arrest”, the cell cycle (K562 cancer cells [18]) was “G2/M phase cell cycle arrest” and the glucose uptake (H1299 cells [19]) was “no noticeable changes”. For the same compound, the “cellular ATP levels” value (H1299 cells [20]) was “significantly reduced”, the “cellular ATP levels” value (K562 cells [21]) was “significantly reduced” and the apoptosis (H1299 cells [22]) was “didn't noticeably induce apoptosis”. The caspase-3 activity (H1299 cells [22]) was “does not noticeably affect”, the “glucose-dependent RNA synthesis” value (H1299 cells [23]) was “no noticeable changes” and the CCO activity [24] was “significantly lowered”. For the same compound, the CCO activity [25] was “significantly lowered”, the SOD2 expression level (SOD1 and SOD2) was “Reduced expression” and the “cell death in cancer cells” value [3] was “induce cell death”. The cancer cell proliferation ([3]; dose-dependent) was “high efficiency in inhibiting cancer cell proliferation” and the copper uptake (HeLa cells) was “reduced copper uptake”.
In the case of `COc1ccc2cc3c(N)c(C(=O)Nc4ccc(C(C)=O)cc4)sc3nc2c1` [Compound 61, N-(4-acetylphenyl)-3-amino-7-methoxythieno[2,3-b]quinoline-2-carboxamide], the “Fluorescence Intensity Ratio (Citrine/Cerulean)” value [1] was “eCALWY3 only: 3.68 100 μM compound added: 2.72”, the Recover % [1] was 74% and the “viability of normal cells” value [2] was “not harmful”. For the same compound, the “cell death in cancer cells” value [3] was “induce cell death”.
With `Cc1cc(NC(=O)c2sc3nc(-c4ccccc4)cc(C(F)(F)F)c3c2N)no1` [Compound 71, 3-amino-N-(5-methylisoxazol-3-yl)-6-phenyl-4-(trifluoromethyl)thieno[2,3-b]pyridine-2-carboxamide] the “Fluorescence Intensity Ratio (Citrine/Cerulean)” value [1] was “eCALWY3 only: 2.25 100 μM compound added: 1.86”, the Recover % [1] was 83% and the “viability of normal cells” value [2] was “toxic to normal cells”.
In the case of `CC(=O)N[C@@H](CS)C(=O)O` [NAC, N-acetyl-L-cysteine, reference compound], the “rescue of AMPK and ACC1 phosphorylation increased by compound 50” value [6] was “could not be rescued”, the “rescue of cellular ROS levels increased by compound 50” value (H1299 cells [7]; co-treatment with compound 50) was “almost completely rescued” and the “rescue of cellular ROS levels increased by compound 50” value (K562 cells [8]; co-treatment with compound 50) was “almost completely rescued”. For the same compound, the “rescue of 8-OHdG levels increased by compound 50” value (H1299 cancer cells [9]; NAC 3 mM) was “rescued”, the “rescue of 8-OHdG levels increased by compound 50” value (K562 cancer cells [10]; NAC 3 mM) was “rescued” and the “rescue of cell proliferation inhibited by compound 50” value (cell proliferation) was “partially rescued”.
For `[SH-].[SH-].[S]=[Mo]=[S]` [TM, tetrathiomolybdate], the tumor growth (tumor growth) is given as “significantly inhibited tumor growth”.
With `c1cc(-c2cnn3cc(-c4ccc(OCCN5CCCCC5)cc4)cnc23)ccn1` [compound C, reference compound] the “rescue of lipid synthesis decreased by compound 50” value (H1299 cells [5]; co-treatment with compound 50) was “recovered lipid synthesis”, the “rescue of AMPK and ACC1 phosphorylation increased by compound 50” value [6] was “almost completely reversed” and the “rescue of cell proliferation inhibited by compound 50” value (cell proliferation) was “partially rescued”.
